The values below come from patent US9708314B2, “Heterocyclic amide compound” (NISSAN CHEMICAL INDUSTRIES, LTD., priority 2013, dated 2017).

Assay type in all cases: in vivo
Series [1] relates to directly sowed Oryza sativa. As to the kind of experiment: Test Example 3: effect on crop by application to foliage (Wagner pot, water depth 0.1-0.5 cm). As to conditions: Nineteenth Table; application to foliage; application herbicide amount 320 g/ha. The method, boiled down:
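Wagner pot foliar test: sow, grow 14 d (25–30 °C), spray diluted emulsion at set g/ha, score after 3 wk; 0 ≤5%, 5 ≥90% herbicidal ratio.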

The next series deals with Abutilon theophrasti. The series is described as follows: Test Example 4: herbicidal effect by application to foliage (diluvial soil, plastic box). The note with it: for M (Abutilon theophrasti) herbicidal effect grade: foliage application. The method, boiled down:
(§1)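 Read-out is a 0–5 visual grade of herbicidal ratio (5: ≥90%, almost withered; 0: ≤5%) taken three weeks after treatment. Compound was applied as a diluted emulsion to stem and leaf parts of 14-day greenhouse-grown plants (25° C. to 30° C.) at rates expressed as g/ha.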

The next series concerns Alopecurus myosuroides. The series is described as above. As to conditions: for J (Alopecurus myosuroides) herbicidal effect grade: foliage application. The method, boiled down: as §1
A further series has as its system Amaranthus retroflexus. The series is described as above. The note with it: for N (Amaranthus retroflexus) herbicidal effect grade: foliage application. The method, boiled down:
as §1

Another series relates to Apera spica-venti. The series is described as above. The note with it: for L (Apera spica-venti.) herbicidal effect grade: foliage application. The method, boiled down:
as §1

The test system of a further series is Avena fatua. The description is as above. The note with it: for I (Avena fatua) herbicidal effect grade: foliage application. The method, boiled down: as §1
For a further series, the system named is Chenopodium album. The description is as above. The note with it: for O (Chenopodium album) herbicidal effect grade: foliage application. The method, boiled down:
as §1

In a further series the test system is Digitaria ciliaris. The description is as above. The note with it: for F (Digitaria ciliaris) herbicidal effect grade: foliage application. The method, boiled down: as §1
Series [2] deals with Echinochloa crus-galli var. crus-galli. Described as above. The note with it: for H (Echinochloa crus-galli var. crus-galli) herbicidal effect grade: foliage application. The method, boiled down: as §1
For a further series, the system named is Galium spurium. Described as above. As to conditions: for Q (Galium spurium) herbicidal effect grade: foliage application. The method, boiled down:
as §1

The subject of the next series is Lolium multiflorum Lam. The series is described as above. The note with it: for K (Lolium multiflorum Lam.) herbicidal effect grade: foliage application. The method, boiled down: as §1
Another series concerns Setaria viridis. Described as above. As to conditions: for G (Setaria viridis) herbicidal effect grade: foliage application. The method, boiled down:
as §1

For the next series, the system named is Stellaria media. The description is as above. As to conditions: for P (Stellaria media) herbicidal effect grade: foliage application. The method, boiled down:
as §1

The test system of another series is Veronica persica. Described as above. As to conditions: for R (Veronica persica) herbicidal effect grade: foliage application. The method, boiled down:
as §1

The mark [3] stands for this setting: Application herbicide amount 320 g/ha.
Where [4] appears, read: application to foliage, application herbicide amount 320 g/ha.

For `Cc1nnc(NC(=O)c2ccc(C(F)(F)F)n3c(SCC(F)(F)F)nnc23)o1` [1-124], the “b (effect on crop grade)” value in series [1] is given as 0 (Herbicidal ratio of 5% or less (almost no effect)). The “M (Abutilon theophrasti) herbicidal effect grade” value with Abutilon theophrasti (setting [3]) is listed as 5 (Herbicidal ratio of 90% or more (almost completely withered)). Besides, in the series on Alopecurus myosuroides (setting [3]), the “J (Alopecurus myosuroides) herbicidal effect grade” value was 0 (Herbicidal ratio of 5% or less (almost no effect)). In addition, the “N (Amaranthus retroflexus) herbicidal effect grade” value with Amaranthus retroflexus (setting [3]) is 4 (Herbicidal ratio of 70% or more and less than 90%). Moreover, the “L (Apera spica-venti.) herbicidal effect grade” value in the series on Apera spica-venti. (setting [3]) is 1 (Herbicidal ratio of 5% or more and less than 20%). In the series with Avena fatua (setting [3]), the “I (Avena fatua) herbicidal effect grade” value is 2 (Herbicidal ratio of 20% or more and less than 40%). In addition, the “O (Chenopodium album) herbicidal effect grade” value with Chenopodium album (setting [3]) was 5 (Herbicidal ratio of 90% or more (almost completely withered)). Moreover, the “F (Digitaria ciliaris) herbicidal effect grade” value in the series on Digitaria ciliaris (setting [3]) was 5 (Herbicidal ratio of 90% or more (almost completely withered)). Besides, the “H (Echinochloa crus-galli var. crus-galli) herbicidal effect grade” value in series [2] (setting [3]) is given as 5 (Herbicidal ratio of 90% or more (almost completely withered)). The “Q (Galium spurium) herbicidal effect grade” value in the series on Galium spurium (setting [3]) was 2 (Herbicidal ratio of 20% or more and less than 40%). Also, in the series on Lolium multiflorum Lam. (setting [3]), the “K (Lolium multiflorum Lam.) herbicidal effect grade” value is 0 (Herbicidal ratio of 5% or less (almost no effect)). Besides, the “G (Setaria viridis) herbicidal effect grade” value with Setaria viridis (setting [3]) is 3 (Herbicidal ratio of 40% or more and less than 70%). For the same compound, the “P (Stellaria media) herbicidal effect grade” value with Stellaria media (setting [3]) is 3 (Herbicidal ratio of 40% or more and less than 70%). Also, in the series on Veronica persica (setting [3]), the “R (Veronica persica) herbicidal effect grade” value was 2 (Herbicidal ratio of 20% or more and less than 40%).

`Cn1nnnc1NC(=O)c1ccc(C(F)(F)F)n2c(Br)nnc12` [2-009]: the “b (effect on crop grade)” value in [1] was 4 (Herbicidal ratio of 70% or more and less than 90%). The “M: herbicidal effect on Abutilon theophrasti” value in the series on Abutilon theophrasti (setting [4]) was 5 (Herbicidal ratio of 90% or more (almost completely withered)). In the series with Alopecurus myosuroides (setting [4]), the “J: herbicidal effect on Alopecurus myosuroides” value is 1 (Herbicidal ratio of 5% or more and less than 20%). Further, in the series with Amaranthus retroflexus (setting [4]), the “N: herbicidal effect on Amaranthus retroflexus” value was 5 (Herbicidal ratio of 90% or more (almost completely withered)). Also, the “L: herbicidal effect on Apera spica-venti.” value in the series with Apera spica-venti. (setting [4]) was 1 (Herbicidal ratio of 5% or more and less than 20%). The “I: herbicidal effect on Avena fatua” value in the series on Avena fatua (setting [4]) was 3 (Herbicidal ratio of 40% or more and less than 70%). The “O: herbicidal effect on Chenopodium album” value in the series on Chenopodium album (setting [4]) is listed as 5 (Herbicidal ratio of 90% or more (almost completely withered)). Besides, the “F: herbicidal effect on Digitaria ciliaris” value with Digitaria ciliaris (setting [4]) was 4 (Herbicidal ratio of 70% or more and less than 90%). For the same compound, in series [2] (setting [4]), the “H: herbicidal effect on Echinochloa crus-galli var. crus-galli” value is listed as 5 (Herbicidal ratio of 90% or more (almost completely withered)). For the same compound, the “Q: herbicidal effect on Galium spurium” value in the series on Galium spurium (setting [4]) was 4 (Herbicidal ratio of 70% or more and less than 90%). In the series on Lolium multiflorum Lam. (setting [4]), the “K: herbicidal effect on Lolium multiflorum Lam.” value is 2 (Herbicidal ratio of 20% or more and less than 40%). Besides, in the series with Setaria viridis (setting [4]), the “G: herbicidal effect on Setaria viridis” value was 3 (Herbicidal ratio of 40% or more and less than 70%). The “P: herbicidal effect on Stellaria media” value in the series with Stellaria media (setting [4]) is on record as 5 (Herbicidal ratio of 90% or more (almost completely withered)). In the series with Veronica persica (setting [4]), the “R: herbicidal effect on Veronica persica” value was 4 (Herbicidal ratio of 70% or more and less than 90%).

With `Cc1nnc(NC(=O)c2ccc(C(F)(F)F)n3c(SCC4OCCO4)nnc23)o1` [1-126], the “b (effect on crop grade)” value in series [1] is reported as 0 (Herbicidal ratio of 5% or less (almost no effect)). Further, in the series with Abutilon theophrasti (setting [3]), the “M (Abutilon theophrasti) herbicidal effect grade” value is 3 (Herbicidal ratio of 40% or more and less than 70%). Besides, the “J (Alopecurus myosuroides) herbicidal effect grade” value in the series on Alopecurus myosuroides (setting [3]) was 0 (Herbicidal ratio of 5% or less (almost no effect)). The “N (Amaranthus retroflexus) herbicidal effect grade” value in the series with Amaranthus retroflexus (setting [3]) was 3 (Herbicidal ratio of 40% or more and less than 70%). The “L (Apera spica-venti.) herbicidal effect grade” value with Apera spica-venti. (setting [3]) was 1 (Herbicidal ratio of 5% or more and less than 20%). In the series with Avena fatua (setting [3]), the “I (Avena fatua) herbicidal effect grade” value is recorded as 0 (Herbicidal ratio of 5% or less (almost no effect)). Besides, the “O (Chenopodium album) herbicidal effect grade” value with Chenopodium album (setting [3]) is 5 (Herbicidal ratio of 90% or more (almost completely withered)). For the same compound, the “F (Digitaria ciliaris) herbicidal effect grade” value in the series with Digitaria ciliaris (setting [3]) was 4 (Herbicidal ratio of 70% or more and less than 90%). Besides, in [2] (setting [3]), the “H (Echinochloa crus-galli var. crus-galli) herbicidal effect grade” value is listed as 5 (Herbicidal ratio of 90% or more (almost completely withered)). In addition, the “Q (Galium spurium) herbicidal effect grade” value in the series on Galium spurium (setting [3]) was 1 (Herbicidal ratio of 5% or more and less than 20%). The “K (Lolium multiflorum Lam.) herbicidal effect grade” value in the series with Lolium multiflorum Lam. (setting [3]) is listed as 0 (Herbicidal ratio of 5% or less (almost no effect)). In addition, the “G (Setaria viridis) herbicidal effect grade” value in the series on Setaria viridis (setting [3]) was 3 (Herbicidal ratio of 40% or more and less than 70%). In the series on Stellaria media (setting [3]), the “P (Stellaria media) herbicidal effect grade” value was 5 (Herbicidal ratio of 90% or more (almost completely withered)). Further, in the series on Veronica persica (setting [3]), the “R (Veronica persica) herbicidal effect grade” value is 4 (Herbicidal ratio of 70% or more and less than 90%).

As for `Cc1nnc(NC(=O)c2ccc(C(F)(F)F)n3c(C4(C)CC4(Cl)Cl)nnc23)o1` (stereo not shown) [1-105], in series [1], the “b (effect on crop grade)” value was 0 (Herbicidal ratio of 5% or less (almost no effect)). Further, the “M (Abutilon theophrasti) herbicidal effect grade” value in the series with Abutilon theophrasti (setting [3]) is 3 (Herbicidal ratio of 40% or more and less than 70%). Also, the “J (Alopecurus myosuroides) herbicidal effect grade” value in the series on Alopecurus myosuroides (setting [3]) is 1 (Herbicidal ratio of 5% or more and less than 20%). The “N (Amaranthus retroflexus) herbicidal effect grade” value in the series on Amaranthus retroflexus (setting [3]) is 3 (Herbicidal ratio of 40% or more and less than 70%). Moreover, in the series on Apera spica-venti. (setting [3]), the “L (Apera spica-venti.) herbicidal effect grade” value is 1 (Herbicidal ratio of 5% or more and less than 20%). In addition, the “I (Avena fatua) herbicidal effect grade” value in the series on Avena fatua (setting [3]) was 1 (Herbicidal ratio of 5% or more and less than 20%). In addition, the “O (Chenopodium album) herbicidal effect grade” value with Chenopodium album (setting [3]) is listed as 5 (Herbicidal ratio of 90% or more (almost completely withered)). Also, in the series on Digitaria ciliaris (setting [3]), the “F (Digitaria ciliaris) herbicidal effect grade” value is 4 (Herbicidal ratio of 70% or more and less than 90%). In series [2] (setting [3]), the “H (Echinochloa crus-galli var. crus-galli) herbicidal effect grade” value was 4 (Herbicidal ratio of 70% or more and less than 90%). Besides, the “Q (Galium spurium) herbicidal effect grade” value in the series with Galium spurium (setting [3]) was 1 (Herbicidal ratio of 5% or more and less than 20%). For the same compound, in the series with Lolium multiflorum Lam. (setting [3]), the “K (Lolium multiflorum Lam.) herbicidal effect grade” value is 1 (Herbicidal ratio of 5% or more and less than 20%). Further, the “G (Setaria viridis) herbicidal effect grade” value in the series with Setaria viridis (setting [3]) was 1 (Herbicidal ratio of 5% or more and less than 20%). In the series with Stellaria media (setting [3]), the “P (Stellaria media) herbicidal effect grade” value is 4 (Herbicidal ratio of 70% or more and less than 90%). Further, the “R (Veronica persica) herbicidal effect grade” value in the series on Veronica persica (setting [3]) is 3 (Herbicidal ratio of 40% or more and less than 70%).

On to `Cn1nnnc1NC(=O)c1ccc(C(F)(F)F)n2c(CSCC(F)(F)F)nnc12` [2-030], for which the “b (effect on crop grade)” value in [1] is recorded as 5 (Herbicidal ratio of 90% or more (almost completely withered)). Also, the “M (Abutilon theophrasti) herbicidal effect grade” value in the series with Abutilon theophrasti (320 g/ha) was 5 (Herbicidal ratio of 90% or more (almost completely withered)). Also, the “J (Alopecurus myosuroides) herbicidal effect grade” value in the series on Alopecurus myosuroides (320 g/ha) is 3 (Herbicidal ratio of 40% or more and less than 70%). For the same compound, the “N (Amaranthus retroflexus) herbicidal effect grade” value in the series with Amaranthus retroflexus (320 g/ha) is recorded as 5 (Herbicidal ratio of 90% or more (almost completely withered)). In addition, in the series with Apera spica-venti. (320 g/ha), the “L (Apera spica-venti.) herbicidal effect grade” value is 5 (Herbicidal ratio of 90% or more (almost completely withered)). In addition, the “I (Avena fatua) herbicidal effect grade” value in the series with Avena fatua (320 g/ha) was 4 (Herbicidal ratio of 70% or more and less than 90%). Further, the “O (Chenopodium album) herbicidal effect grade” value in the series on Chenopodium album (320 g/ha) was 5 (Herbicidal ratio of 90% or more (almost completely withered)). Further, the “F (Digitaria ciliaris) herbicidal effect grade” value with Digitaria ciliaris (320 g/ha) is given as 5 (Herbicidal ratio of 90% or more (almost completely withered)). Besides, the “H (Echinochloa crus-galli var. crus-galli) herbicidal effect grade” value in series [2] (320 g/ha) is given as 5 (Herbicidal ratio of 90% or more (almost completely withered)). Besides, in the series on Galium spurium (320 g/ha), the “Q (Galium spurium) herbicidal effect grade” value was 3 (Herbicidal ratio of 40% or more and less than 70%). In addition, the “K (Lolium multiflorum Lam.) herbicidal effect grade” value in the series on Lolium multiflorum Lam. (320 g/ha) is 3 (Herbicidal ratio of 40% or more and less than 70%). For the same compound, the “G (Setaria viridis) herbicidal effect grade” value with Setaria viridis (320 g/ha) is listed as 5 (Herbicidal ratio of 90% or more (almost completely withered)). The “P (Stellaria media) herbicidal effect grade” value with Stellaria media (320 g/ha) is recorded as 5 (Herbicidal ratio of 90% or more (almost completely withered)). In addition, in the series on Veronica persica (320 g/ha), the “R (Veronica persica) herbicidal effect grade” value was 5 (Herbicidal ratio of 90% or more (almost completely withered)).
